Source: patent publication US8722690B2, “Mesoionic pesticides” (E I du Pont de Nemours and Company, priority 2009, dated 2014)

Assays:
Format in all cases: in vivo
[1] = tested on: cotton melon aphid (Aphis gossypii); assay: Test D: control of cotton melon aphid on cotton plant, contact and/or systemic; settings: for mortality at 50 ppm: sprayed at 50 ppm
From the text: For evaluating control of cotton melon aphid (Aphis gossypii) through contact and/or systemic means, the test unit consisted of a small open container with a 6-7-day-old cotton plant inside. This was pre-infested with 30-40 insects on a piece of leaf according to the cut-leaf method described for Test C, and the soil of the test unit was covered with a layer of sand.
Test compounds were formulated and sprayed at 50 ppm and/or 10 ppm as described for Test C. The applications were replicated three times. After spraying, the test units were maintained in a growth chamber and then visually rated as described for Test C.

[2] = tested on: green peach aphid (Myzus persicae); assay: whole plant or invertebrate; settings: 144 h, 6 days, radish plant; for mortality at 50 ppm: sprayed at 50 ppm
From the text: For evaluating control of green peach aphid (Myzus persicae) through contact and/or systemic means, the test unit consisted of a small open container with a 12-15-day-old radish plant inside. This was pre-infested by placing on a leaf of the test plant 30-40 aphids on a piece of leaf excised from a culture plant (cut-leaf method). The aphids moved onto the test plant as the leaf piece desiccated. After pre-infestation, the soil of the test unit was covered with a layer of sand.
Test compounds were formulated and sprayed at 50 ppm and/or 10 ppm as described for Test A. The applications were replicated three times. After spraying of the formulated test compound, each test unit was allowed to dry for 1 h and then a black, screened cap was placed on top. The test units were held for 6 days in a growth chamber at 19-21° C. and 50-70% relative humidity. Each test unit was then visually assessed for insect mortality.

[3] = tested on: corn planthopper (Peregrinus maidis); assay: whole plant or invertebrate; settings: 144 h, 6 days, maize plant, very good to excellent levels of control efficacy; for mortality at 10 ppm: sprayed at 10 ppm; for mortality at 50 ppm: sprayed at 50 ppm
Procedure: For evaluating control of corn planthopper (Peregrinus maidis) through contact and/or systemic means, the test unit consisted of a small open container with a 3-4-day-old maize plant (spike) inside. White sand was added to the top of the soil prior to application. Test compounds were formulated and sprayed at 50 ppm and/or 10 ppm, and replicated three times as described for Test A. After spraying, the test units were allowed to dry for 1 h before they were post-infested with ˜15-20 nymphs (18 to 21 day old) by sprinkling them onto the sand with a salt shaker. A black, screened cap was placed on the top of each test unit, and the test units were held for 6 days in a growth chamber at 22-24° C. and 50-70% relative humidity. Each test unit was then visually assessed for insect mortality.

[4] = tested on: potato leafhopper (Empoasca fabae); assay: whole plant or invertebrate; settings: 144 h, 6 days, Soleil bean plant, very good to excellent levels of control efficacy; for mortality at 10 ppm: sprayed at 10 ppm; for mortality at 50 ppm: sprayed at 50 ppm
Procedure: For evaluating control of potato leafhopper (Empoasca fabae) through contact and/or systemic means, the test unit consisted of a small open container with a 5-6-day-old Soleil bean plant (primary leaves emerged) inside. White sand was added to the top of the soil and one of the primary leaves was excised prior to application.
Test compounds were formulated and sprayed at 50 ppm and/or 10 ppm, and the tests were replicated three times as described for Test A. After spraying, the test units were allowed to dry for 1 h before they were post-infested with 5 potato leafhoppers (18-21-day-old adults). A black, screened cap was placed on the top of each test unit, and the test units were held for 6 days in a growth chamber at 24° C. and 70% relative humidity. Each test unit was then visually assessed for insect mortality.

CCn1ccn2c(=O)c(-c3ccccc3)c([O-])[n+](Cc3cnc(Cl)s3)c12 [Compound 333]
≥ 80%: mortality at 50 ppm [1] | mortality at 10 ppm ([2]; sprayed at 10 ppm) | mortality at 50 ppm [2] | mortality at 10 ppm [3] | mortality at 50 ppm [3] | mortality at 10 ppm [4] | mortality at 50 ppm [4]

O=c1c(-c2ccccc2)c([O-])[n+](Cc2cnc(Cl)s2)c2c3ccsc3ccn12 [Compound 356]
≥ 80%: mortality at 50 ppm [4]

O=c1c(-c2ccccc2F)c([O-])[n+](Cc2cnc(Cl)s2)c2c3ccsc3ccn12 [Compound 357]
≥ 80%: mortality at 50 ppm [2] | mortality at 10 ppm [4] | mortality at 50 ppm [4]

CCn1ccn2c(=O)c(-c3cccc(C(F)(F)F)c3)c([O-])[n+](Cc3cnc(Cl)s3)c12 [Compound 340]
≥ 80%: mortality at 10 ppm ([1]; sprayed at 10 ppm) | mortality at 50 ppm [1] | mortality at 50 ppm [2] | mortality at 10 ppm [3] | mortality at 50 ppm [3] | mortality at 50 ppm [4]
